Data published in the supplement of paper PMC10307832.

Assays:
Test in all cases: relative viability (nuclei count vs DMSO), 5 days (fraction); higher = more cells survive
[1] = compound: C#Cc1cccc(Nc2ncnc3cc(OC)c(OCCCCCCC(=O)NO)cc23)c1 [CUDC-101] + NC(=O)Nc1cc(-c2cccc(F)c2)sc1C(=O)N[C@H]1CCCNC1 [AZD7762] (partner 0.2 µM)
How it was run: (§1)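 A single step with final 0.05% Triton X-100, 1% formaldehyde and 1 ug/ml Hoechst fixed the cells and stained nuclei 5 days after treatment. Lung cancer cell lines in 1536-well plates had been treated by pin tool the day after seeding with one drug alone or a fixed anchor-drug dose plus five library-drug doses (not always all listed) in √10 steps, and nuclei were counted on 4× images. Relative viability is the ratio of nuclei in treated wells to nuclei in vehicle wells, taken as the median of duplicate plates.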

[2] = compound: C1=CC=C2C(=C1)N=C(S2)C(C#N)C3=NC(=NC=C3)NCCC4=CN=CC=C4 + C[C@]1(O)C[C@@H](c2nc(-c3ccc4ccc(-c5ccccc5)nc4c3)c3c(N)nccn32)C1 [Linsitinib] (partner 1 µM)
How it was run: as §1

[3] = compound: COc1cc2/c(=N/c3ccc(Br)cc3F)nc[nH]c2cc1OCC1CCN(C)CC1 [Vandetanib] + Cc1nc(NC(=O)N2CCC[C@H]2C(N)=O)sc1-c1ccnc(C(C)(C)C(F)(F)F)c1 [Alpelisib] (partner 2 µM)
How it was run: as §1

[4] = compound: COc1cc2/c(=N/c3ccc(Br)cc3F)nc[nH]c2cc1OCC1CCN(C)CC1 [Vandetanib] + N=C(N)NC(=N)NCCc1ccccc1 [Phenformin] (partner 250 µM)
How it was run: as §1

Row | Cell Line | relative viability ([1]; first compound 0.01 µM) | relative viability ([1]; first compound 0.03162 µM) | relative viability ([1]; first compound 0.1 µM) | relative viability ([1]; first compound 0.3162 µM) | relative viability ([1]; first compound 1 µM) | relative viability ([2]; first compound 0.005 µM) | relative viability ([2]; first compound 0.01581 µM) | relative viability ([2]; first compound 0.05 µM) | relative viability ([2]; first compound 0.1581 µM) | relative viability ([2]; first compound 0.5 µM) | relative viability ([3]; first compound 0.02 µM) | relative viability ([3]; first compound 0.06325 µM) | relative viability ([3]; first compound 0.2 µM) | relative viability ([3]; first compound 0.6325 µM) | relative viability ([3]; first compound 2 µM) | relative viability ([4]; first compound 0.02 µM) | relative viability ([4]; first compound 0.06325 µM) | relative viability ([4]; first compound 0.2 µM) | relative viability ([4]; first compound 0.6325 µM) | relative viability ([4]; first compound 2 µM)
1 | HCC-78 | 0.66 | 0.531 | 0.603 | 0.355 | 0.323 | 0.492 | 0.423 | 0.33 | 0.582 | 0.549 | 0.346 | 0.32 | 0.337 | 0.321 | 0.288 | 0.744 | 0.638 | 0.662 | 0.664 | 0.627
2 | NCI-H2085 | 0.956 | 1.01 | 1.06 | 0.922 | 0.877 | 0.694 | 0.978 | 0.867 | 1.04 | 0.839 | 0.98 | 0.901 | 0.873 | 0.869 | 0.936 | 0.769 | 0.674 | 0.649 | 0.668 | 0.595
3 | HARA | 0.31 | 0.507 |  | 0.24 | 0.131 | 0.731 | 0.937 | 0.934 | 1.12 | 0.788 | 0.812 | 0.76 | 0.861 | 0.821 | 0.537 | 0.471 | 0.447 | 0.44 | 0.381 | 0.351
4 | 201T | 0.617 | 0.646 | 0.613 | 0.614 | 0.39 | 1.07 | 1.01 | 1.06 | 1.06 | 0.974 | 1.08 | 0.959 | 0.985 | 0.977 | 0.995 | 0.466 | 0.406 | 0.427 | 0.403 | 0.424
5 | EMC-BAC-2 | 1.08 | 1.09 | 1.06 | 0.947 | 0.443 | 0.568 | 0.877 | 0.785 | 0.925 | 0.728 | 0.737 | 0.742 | 0.472 | 0.712 | 0.717 | 0.51 | 0.506 | 0.339 | 0.485 | 0.463
6 | NCI-H441 | 1.36 | 1.08 | 1.34 | 1.37 | 1.07 |  | 0.499 | 0.533 | 0.617 | 0.447 | 0.795 | 0.535 | 0.896 | 0.848 | 0.728 | 0.849 | 0.783 | 0.898 | 0.916 | 0.717
7 | NCI-H1944 | 0.503 | 0.466 | 0.44 | 0.311 | 0.198 | 1.09 | 1.25 | 1.2 | 1.34 | 1.2 | 0.781 | 0.81 | 0.807 | 0.757 | 0.744 | 0.205 | 0.195 | 0.209 | 0.168 | 0.188
8 | NCI-H727 | 0.627 | 0.403 | 0.562 | 0.619 | 0.476 | 0.328 | 0.321 | 0.228 | 0.396 | 0.298 | 0.619 | 0.56 | 0.405 | 0.496 | 0.322 | 0.565 | 0.468 | 0.712 | 0.283 | 0.448
